Here are results for 6 compounds from paper PMC12077149, “Evolution of PqsE as a Pseudomonas aeruginosa-specific regulator of LuxR-type receptors: insights from Pseudomonas and Burkholderia” (mBio, 2025).

The target of assay [1] is T1, CepR (Burkholderia cepacia, UniProt Q9AM51).
T1 construct: gene CO711_26440; untagged full-length, in E. coli (arabinose-inducible with pcepI-luxCDABE reporter; pET-DUET for solubility)
The assay is described as follows: protein solubilization in E. coli, SDS-PAGE. In kind it is cell-based. The settings on record: AHL added at induction.

The test system of assay [2] is T2, HhqE^Bc.
T2 construct: 6xHis-tagged, E. coli BL21(DE3), Ni-NTA and SEC; monomer (~32 kDa by SEC)
Put plainly: thiol release with Ellman's reagent, A412. In kind it is biochemical, Burkholderia cepacia. The settings on record: 0.1 M Tris-HCl pH 8.0, 2 mM DTNB; 2 µM enzyme; substrate up to 1 mM. From the text: thiol release with Ellman's reagent, A412 on HhqE^Bc

Assay [3] concerns the target T1, CepR. The assay is described as follows: E. coli pcepI-lux reporter; protein solubilization. Format: cell-based. The settings on record: 10 µM AHL in reporter; agonist.
For assay [4], the system named is T2, HhqE^Bc. The assay is described as follows: fluorescence hydrolysis assay (ex […] / em […] nm). Format: biochemical, Burkholderia cepacia. The note with it: 50 mM Tricine, 0.01% Triton X-100; 2 µM enzyme; substrate up to 8 µM.

As usually defined, the Km is the substrate concentration at which the rate is half of its maximum.

T1 sequence (Q9AM51 entry or part of it): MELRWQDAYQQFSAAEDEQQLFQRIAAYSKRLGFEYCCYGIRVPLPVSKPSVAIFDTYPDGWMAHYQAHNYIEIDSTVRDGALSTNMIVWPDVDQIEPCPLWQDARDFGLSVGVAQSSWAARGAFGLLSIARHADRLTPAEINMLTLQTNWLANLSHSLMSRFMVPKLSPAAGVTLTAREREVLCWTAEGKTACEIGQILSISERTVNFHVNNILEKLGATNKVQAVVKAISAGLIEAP

Turning to `CCCCCCCCCC(=O)CC(=O)N[C@H]1CCOC1=O` [3OC12HSL], in assay [1], the “protein solubilization in E. coli, SDS-PAGE” value was “C6HSL, C8HSL, C10HSL, and 3OC12HSL—were sufficient for the solubilization of CepR”.

With `CC(=O)CC(=O)SCCNC(=O)CCNC(=O)[C@H](O)C(C)(C)COP(=O)(O)OP(=O)(O)OC[C@H]1O[C@@H](n2cnc3c(N)ncnc32)[C@H](O)[C@@H]1OP(=O)(O)O` [Acetoacetyl-CoA], the Km in assay [2] stood at 7.5 ± 0.4 mM.

Regarding `CCCCCC(=O)N[C@H]1CCOC1=O` [C6HSL], the “protein solubilization in E. coli, SDS-PAGE” value in assay [1] was “C6HSL, C8HSL, C10HSL, and 3OC12HSL—were sufficient for the solubilization of CepR”.

Turning to `CCCCCCCC(=O)N[C@H]1CCOC1=O` [C8HSL], the “E. coli pcepI-lux reporter; protein solubilization” value in assay [3] is reported as “CepR responded to its cognate ligand C8HSL and, to a lesser extent, C10HSL”.

Regarding `CCCCCCCCCC(=O)N[C@H]1CCOC1=O` [C10HSL], the “E. coli pcepI-lux reporter; protein solubilization” value in assay [3] is on record as “CepR responded to its cognate ligand C8HSL and, to a lesser extent, C10HSL”.

For `CCCC(=O)Oc1ccc2c(C)cc(=O)oc2c1` [MU-butyrate], in assay [4], the Km stood at 0.00016 mM.
